Measurements reported in patent US10874631B2, “Altertoxin II as a selective inhibitor of Ewing family of tumor cells” (priority 2016, dated 2020).

Tests used:
RD-ES cells [1] = assay: PARP cleavage immunoblot (apoptosis); format: cell-based; conditions: 100 nM
Experimental: (§1) FIG. 4A-4B. Altertoxin II selectively induces PARP cleavage in EWS cell lines. Immunoblotting for total and cleaved PARP. (A) Two Ewing sarcoma (EWS) cell lines, RD-ES and SK-ES-1, were treated with 100 nM altertoxin II (ATX) for the indicated amounts of time. Whole-cell lysates were prepared and separated by SDS-PAGE. (B) The EWS cell line SK-ES-1 and rhabdomysosarcoma cell line A204 were treated with the indicated concentrations of ATX for 18 hours, lysed and separated by SDS-PAGE.
(§2) The ability of altertoxin II to initiate cell death via apoptosis, as measured by PARP cleavage, was evaluated in two Ewing sarcoma cells lines, SK-ES-1 and RD-ES. […] A range of altertoxin II concentrations when then evaluated in SK-ES-1 Ewing sarcoma cells as compared to A204 rhabdomyosarcoma cells.

[2] = system: A204 rhabdomyosarcoma cells; assay: PARP cleavage immunoblot (apoptosis); format: cell-based; conditions: 100 nM and 1 μM, 18 hours
Experimental: as §1, §2

SK-ES-1 cells = assay: PARP cleavage immunoblot (apoptosis); format: cell-based
Experimental: as §1, §2

[3] = system: A204 rhabdomyosarcoma cells; assay: DNA damage response immunoblot (Chk1); format: cell-based; conditions: concentrations up to 1 μM
Experimental: (§3) FIG. 9A-9B. Altertoxin II causes phosphorylation of CHK1 and 2 and p53 in Ewing sarcoma cells. Ewing sarcoma cells, A673, RD-ES, SK-ES-1, or rhabdomyosarcoma A204 cells were treated with altertoxin II at the concentrations indicated for 6 h (A) or 24 h (B) and whole-cell lysates prepared and proteins separated by SDS-PAGE. These samples were analyzed by immunoblotting for total and phosphorylated Chk1 and 2 and p53 (A).
(§4) Downstream activation of DNA damage response proteins by altertoxin II was subsequently evaluated.

[4] = system: SK-ES-1 Ewing sarcoma cells; assay: DNA damage response immunoblot (Chk1); format: cell-based; conditions: 100 nM and 1 μM, 24 h
Experimental: as §3, §4

[5] = system: Rh30 rhabdomyosarcoma cells; assay: γH2AX high-content imaging; format: cell-based
Experimental: (§5) FIG. 7A-7B. Altertoxin II (ATXII) selectively induces γH2AX foci in A673 Ewing sarcoma cells. (A) A673 cells were treated for 24 h with 100 nM altertoxin II and serine 139 phosphorylation of γH2AX evaluated by indirect immunofluorescence techniques. (B) High-content imaging and image analysis were used to construct concentration-response curves for nuclear γH2AX intensity in A673 and Rh30 rhabdomyosarcoma cells after treatment with altertoxin II for 6 h.
(§6) Studies were conducted to test whether altertoxin II initiates DNA damage in Ewing sarcoma cells because of the well-known sensitivity of these cells to DNA damage and prior reports of altertoxin II-induced DNA damage in other mammalian cells (Fleck, S. C. et al., Toxicol Lett, 214, 27-32, 2012). […] Consistent with these measures of DNA damage altertoxin II.

RD-ES cells [6] = assay: G1 arrest with CDK4/6 inhibitor and SRB concentration-response; format: cell-based; conditions: RD-ES pre-treated with LSN2813542 (100 nM); SRB assay
Experimental: FIG. 6. Concentration-response curves for altertoxin II (ATX) with and without pre-treatment with the CDK4/6 inhibitor LSN2813542 (100 nM) using the SRB assay, n=3.
An experiment was designed to evaluate whether the effects of altertoxin II in Ewing sarcoma cells required cell cycle transition. RD-ES cells were arrested in the G1 phase of the cell cycle using the CDK4/6 inhibitor LSN2813542. LSN2813542 (100 nM) had no effect on RD-ES cell viability, but caused greater than 85% of the cells to arrest in G1 for at least 48 h. The arrested cells were then treated with altertoxin II and a concentration-response curve generated.

TC-32 cells = assay: Altertoxin II concentration in cell media by LC/MS; format: in vitro ADME; conditions: TC-32 media, after 2 h
Experimental: (§7) An experiment was conducted to test this possibility. TC-32 Ewing sarcoma and Rh30 rhabdomyosarcoma cells were treated with 100 nM ATX for 6 h and the conditioned media was then applied to the resistant Rh30 cells. […] Differences in the altertoxin II concentration were measured by LC/MS in media from TC-32 and HepG2 hepatocellular carcinoma cells.

[7] = system: HepG2 hepatocellular carcinoma cells; assay: Altertoxin II concentration in cell media by LC/MS; format: in vitro ADME; conditions: after 2 h
Experimental: as §7

A673 Ewing sarcoma cells = assay: γH2AX immunofluorescence / high-content imaging; format: cell-based
Experimental: as §5, §6

[8] = system: A673 Ewing sarcoma murine xenograft; assay: A673 xenograft antitumor efficacy; format: in vivo, Mice
Experimental: FIG. 11. Antitumor efficacy of ATXII against A673 xenograft model. Mice were injected i.p. with 20 mg/kg. ATXII on days 1, 3, 5, 8, 10 and 12, or 40 mg/kg on days 1, 3, and 5.
Studies were conducted to evaluate the in vivo efficacy of altertoxin II in an A673 Ewing sarcoma murine xenograft model (FIG. 11). Mice bearing A673 xenograft tumors were treated with 20 mg/kg altertoxin II on days 1, 3, 5, 8 and 10, or with 40 mg/kg altertoxin II on days 1, 3 and 5.

Ewing sarcoma cells = assay: Panel of 5 pediatric cancer cell lines, selective cytotoxicity; format: cell-based; conditions: 5 types of solid pediatric cancers
[9] = system: RD-ES Ewing sarcoma cells; assay: DNA damage response immunoblot (Chk1, Chk2, p53); format: cell-based
Experimental: as §3, §4

[10] = system: 4 Ewing sarcoma cell lines, including SK-ES-1 cells; assay: Cell cycle distribution by flow cytometry; format: cell-based; conditions: each of 4 Ewing sarcoma lines
Experimental: FIG. 5A-5B. Altertoxin II causes accumulation of SK-ES-1 Ewing sarcoma cells in the S-phase of the cell cycle. Cell cycle analysis of SK-ES-1 cells by flow cytometry. (A) Histogram of DNA content after treatment with two different concentrations of ATX for 18 hours. (B) quantification of cells in each cell cycle phase.
The effects of altertoxin II on cell cycle distribution were evaluated in 4 Ewing sarcoma cell lines using flow cytometry.

O=C1CC[C@]2(O)c3c(ccc(O)c31)-c1ccc(O)c3c1[C@H]2[C@H]1O[C@H]1C3=O [altertoxin II]
time to appearance of cleaved PARP (RD-ES cells [1]): ≤ 17 h | apoptosis (PARP cleavage) [2]: not the rhabdomyosarcoma cells | apoptosis (PARP cleavage) (SK-ES-1 cells; 100 nM and 1 μM, 18 hours): cause apoptosis | time to appearance of cleaved PARP (SK-ES-1 cells; 100 nM, seen at 7 and 17 hours): ≤ 7 h | Chk1 phosphorylation [3]: Chk1 phosphorylation was not observed | Chk1 phosphorylation [4]: Chk1 phosphorylation was also observed | γH2AX foci ([5]; 10 μM, 24 h exposure): did initiate γH2AX foci | γH2AX foci ([5]; concentrations up to 1 μM, 6 or 24 h): no γH2AX foci were detected | increase in total growth inhibition concentration (TGI) after G1 arrest (RD-ES cells [6]): 28 fold | altertoxin II remaining in media (TC-32 cells): approximately 25% | altertoxin II remaining in media [7]: no altertoxin II was detectable | nuclear γH2AX, high-content imaging (A673 Ewing sarcoma cells; 30 nM, 6 h): caused an increase in γH2AX | H2AX serine 139 phosphorylation (γH2AX) (A673 Ewing sarcoma cells; 100 nM, within 6 h): rapidly induced H2AX serine 139 phosphorylation | tumor growth ([8]; 20 mg/kg i.p. days 1, 3, 5, 8 and 10): trend of modest tumor growth inhibition | tumor volume vs control on day 14 ([8]; 20 mg/kg, day 14): no statistically significant difference | tumor growth ([8]; 40 mg/kg i.p. days 1, 3 and 5, 14-day trial): significant inhibition of tumor growth | tumor size vs control on day 14 ([8]; 40 mg/kg, day 14, p=0.0001): significantly smaller than control tumors | therapeutic window ([8]; A673 xenograft): acceptable therapeutic window | selective cytotoxic activity against Ewing sarcoma cells (Ewing sarcoma cells): potent, Ewing sarcoma-specific effects | phosphorylation of p53 [9]: also observed in RD-ES cells | phosphorylation of Chk1 and Chk2 ([9]; 10-300 nM, within 6 h): caused phosphorylation of checkpoint kinase 1 and 2 | cell cycle distribution [10]: Concentration-dependent S-phase arrest
